Experiment: Human HepG2 cell viability assay in 384 well format
Assay type: toxicity, cell-based
Set-up: dose 125 nL, time 70.5 hour; concentration not given beside the values
Conditions: HepG2 cells, read-out: Inhibition

Row | Compound | cytotoxicity at 70.5 h [%]
1 | N#Cc1ccccc1N1CCCN(C(=O)CCc2ccco2)CC1 | -5.97
2 | Fc1cccc(-c2nc(CN3CCCC3Cn3cccn3)co2)c1 (configuration not stated) | 15.8
3 | O=C(c1cccc2c1OCCO2)N1CCCC1c1noc(C2CC2)n1 (configuration not stated) | -2.14
4 | Cc1c(C(=O)NCC2CCS(=O)(=O)C2)cnn1-c1ccccc1 (configuration not stated) | -1.52
5 | Cc1nc(CN2CCC(c3ccnn3CCO)CC2)oc1C | 1.65
6 | Cc1noc(C)c1CN1CCC(c2ccnn2CCO)CC1 | -5.98
7 | O=C(Cc1n[nH]c2ccccc12)N1CCCCC1Cn1cccn1 (configuration not stated) | 2.97
8 | O=c1[nH]c(CCN2CCCC2Cn2cccn2)nc2ccccc12 (configuration not stated) | -9.61
9 | Cc1nc(C2CCCN(C(=O)c3cc(-c4ccccc4)[nH]n3)C2)no1 (configuration not stated) | -3.98
10 | Cc1noc2ncc(C(=O)N3CCCC3c3ccsc3)cc12 (configuration not stated) | -1.73
11 | CN(Cc1nc2ccccc2o1)C1CCCN(c2cccnn2)C1 (configuration not stated) | 4.68
12 | Cc1nc(C)n(CC2CCCCN2CC(=O)NC(C2CC2)C2CC2)n1 (configuration not stated) | 3.82
13 | CCC(O)CN1CCN(C(=O)c2ccn(-c3ccccc3)n2)CC1 (configuration not stated) | 2.94
14 | CCn1cnnc1CNC(=O)NC(C)c1ccccn1 (configuration not stated) | 9.12
15 | CC(O)CN1CCN(C(=O)c2ccn(-c3ccccc3Cl)n2)CC1 (configuration not stated) | -2.57
16 | CN(Cc1nnc(C2CC2)o1)C1CCCN(c2cccnn2)C1 (configuration not stated) | -3.05
17 | Cc1nc(CN(C)C2CCCN(c3cccnn3)C2)oc1C (configuration not stated) | 3.03
18 | Cc1nnc2n1CCN(CCCS(=O)(=O)c1ccccc1)C2 | 0.781
19 | CCOc1ncccc1CNC(=O)N1CCCC1c1ccsc1 (configuration not stated) | -0.934
20 | CN(C)c1ncccc1CNC(=O)N1CCCC1c1cccs1 (configuration not stated) | 1.79
21 | CC(=O)Nc1nc(C(=O)N2CCCC2c2ccc(Br)cc2)cs1 (configuration not stated) | 3.74
22 | Cc1ccc(CN2CCC(NC(=O)c3scnc3C)CC2)cc1 | 3.8
23 | CC(NC(=O)c1cccs1)C(=O)Nc1cccnc1N1CCCCC1 (configuration not stated) | 2.11
24 | CCn1cnnc1CNC(=O)NC(C)c1ccc(Cl)s1 (configuration not stated) | -0.949

Row | Compound | cytotoxicity at 70.5 h [%]
25 | Cn1cnnc1C1CCN(C(=O)CCOc2ccc(Cl)cc2)CC1 | 19.2
26 | Cc1ccc(OCCC(=O)N2CCC(c3nncn3C)CC2)c(C)c1 | 1.76
27 | CC(C)(C)c1cc(NC(=O)CN2CCc3cncnc3C2)on1 | 3.44
28 | Cc1cc(NC(=O)CN2CCc3cncnc3C2)no1 | 25.7
29 | Cc1nc(C)n(CC2CCCN2CCC(=O)NC2CCCC2)n1 (configuration not stated) | 0.666
30 | CS(=O)(=O)c1ccc(OCCCN2CCc3cncnc3C2)cc1 | 23.6
31 | Cc1nc(C)n(CC2CCCCN2CC(=O)Nc2nnc(C)s2)n1 (configuration not stated) | 1.52
32 | Cc1ccc2[nH]c(C(=O)N3CCCC3Cn3cccn3)cc2c1 (configuration not stated) | 4.08
33 | CCOCC(O)CN1CCN(C(=O)c2cccc(CC#N)c2)CC1 (configuration not stated) | -1.07
34 | O=C(c1cc2c(F)cccc2[nH]1)N1CCCCC1Cn1cccn1 (configuration not stated) | 3.2
35 | COc1ccc(C(O)CN2CC(n3nc(C)cc3C)C2)cc1 (configuration not stated) | 1.87
36 | Cc1cc(C)n(C2CN(CC(O)c3cc(F)ccc3F)C2)n1 (configuration not stated) | 6.16
37 | Cc1ccc2cc(C(=O)N3CCCC3Cn3cccn3)[nH]c2c1 (configuration not stated) | 24.4
38 | Cc1cc(C)n(C2CN(CC(O)c3ccc(S(C)(=O)=O)cc3)C2)n1 (configuration not stated) | 0.799
39 | Cn1cc(CCNC(=O)NC2CCN(Cc3ccccn3)CC2)cn1 | 31.9
40 | CC(C)c1noc(CCCC(=O)NCC2CCS(=O)(=O)C2)n1 (configuration not stated) | 22.3
41 | COc1cccc(CNc2cc(N3CCCC3CO)ncn2)n1 (configuration not stated) | -0.345
42 | COc1c(C)cnc(CN2CCOC(CNc3cccnn3)C2)c1C (configuration not stated) | 3.14
43 | CCN(Cc1ccc2c(c1)OCCO2)C(=O)NC(C)Cn1cccn1 (configuration not stated) | 0.788
44 | O=C(Cc1ccc2c(c1)OCCO2)NC1CC1 | 0.821
45 | O=C(Cc1ccc2c(c1)OCCO2)NC1CCCCC1 | -1.15
46 | CN(C)c1cc(CNC(=O)c2cc(F)ccc2F)ccn1 | 0.104
47 | CN(C)c1cc(CNC(=O)c2c(F)cccc2F)ccn1 | 1.27
48 | O=C(NCCCN1CCCCC1)c1n[nH]c(=O)c2ccccc12 | 25

Row | Compound | cytotoxicity at 70.5 h [%]
49 | CN(C)c1cc(CNC(=O)c2ccccc2S(C)(=O)=O)ccn1 | 0.46
50 | O=C(Cc1ccc(F)c(Br)c1)NC1CCN(CC(F)F)CC1 | 3.07
51 | Cc1cccc(-c2ccc(C(=O)NCC3CCOC3)c(=O)[nH]2)c1 (configuration not stated) | -28.7
52 | COCCNC(=O)C1(c2ccccc2C)CCOCC1 | 17.1
53 | Cc1ccccc1CN1CCN(Cc2nccn2C)CC1 | -8.12
54 | CC(C)c1noc(C(C)N2CCN(CCN3CCCC3=O)CC2)n1 (configuration not stated) | -11.8
55 | Cn1ccnc1CN1CCN(CC(=O)NCC(F)(F)F)CC1 | -10.6
56 | CC(C)n1cc(CN2CCCN(C(=O)c3cc(Cl)c[nH]3)CC2)cn1 | 1.03
57 | Cc1ccc(CNC(C)c2ccc3[nH]c(=O)[nH]c3c2)s1 (configuration not stated) | -1.82
58 | Cn1ncc2c(=O)[nH]c(N3CCN(C(=O)c4ccsc4)CC3)nc21 | 14.1
59 | CC(C)C(C(=O)N1CCC(Nc2cccnn2)CC1)n1cncn1 (configuration not stated) | -11.9
60 | Cc1nc(N2CCN(C(=O)c3ccc(O)cc3)CC2)c2cnn(C)c2n1 | -18.5
61 | CN(Cc1nnc(-c2ccco2)o1)C1CCCN(c2cccnn2)C1 (configuration not stated) | 36.8
62 | CCOc1c(Cl)cccc1NCc1cc(C)on1 | 6.44
63 | Cc1ccc(S(=O)(=O)N2CCOc3ccccc32)cc1C(=O)O | -1.56
64 | COc1ccc(CNCc2ccnc(N3CCOCC3)c2)cc1OC | -10.1
65 | CCc1ccc(O)c(C(=O)NC2CCN(S(=O)(=O)CC)CC2)c1 | 8.84
66 | CCc1ccc(O)c(C(=O)NC2CCN(Cc3ccncc3)CC2)c1 | 17.7
67 | CN(C)c1cc(CNC(=O)Nc2ccc(S(C)(=O)=O)nc2)ccn1 | -15.4
68 | CN1CCOC(CNC(=O)CCCOc2ccccc2F)C1 (configuration not stated) | -15.3
69 | Cc1nn(C)c(N(C)C)c1CNCCNS(C)(=O)=O | -7.58
70 | CN1CCOC(CNC(=O)CCCOCCc2ccccc2)C1 (configuration not stated) | -14.2
71 | Cc1cnn(C2CCCN(C(=O)c3sccc3-n3cnnn3)C2)c1 (configuration not stated) | -2.63
72 | Cc1nn(-c2ccccc2)c(C)c1CNC1CCc2ncnn2C1 (configuration not stated) | 1.33

Row | Compound | cytotoxicity at 70.5 h [%]
73 | Cc1nc(-c2nnc[nH]2)sc1C(=O)N(Cc1cccnc1)C1CC1 | 9.64
74 | Cc1ccc(NC(=O)C2CSCN2C(=O)c2cnccn2)c(C)c1 (configuration not stated) | -5.93
75 | Cc1ccc(NC(=O)C2CSCN2C(=O)c2cnn(C)c2)c(C)c1 (configuration not stated) | -4.99
76 | Cc1c(F)cc(C(=O)O)cc1S(=O)(=O)Nc1ccc2c(c1)OCCO2 | -2.52
77 | c1cc(-c2noc(CN3CCn4c(nnc4C4CC4)C3)n2)co1 | -0.323
78 | Cc1cc(OCC(=O)NS(=O)(=O)c2c(C)noc2C)ccc1Cl | -7.45
79 | CC(C)(C)c1nnc(CN2CCCC(Cn3cncn3)C2)o1 (configuration not stated) | -5.42
80 | Cc1n[nH]c(C)c1C1COCCN1C(=O)c1ccccc1 (configuration not stated) | -8.5
81 | COc1ccc(CNCc2ccnc(N3CCCCC3)c2)cc1OC | -4.98
82 | Cn1cnc2c1CCN(Cc1csc(-c3ccsc3)n1)C2 | 20.4
83 | Cc1noc(C2CCN(C(=O)CCc3nccs3)CC2)n1 | 21.5
84 | CC(C)n1ccnc1CN1CCCN(C(=O)c2cccnc2O)CC1 | 23.5
85 | CCc1nc(C2CCCN2CCc2ccccn2)no1 (configuration not stated) | 24.9
86 | COc1cccc(-n2nnc(C(=O)N3CCN(C)CC3C)c2C)c1 (configuration not stated) | 56.4
87 | Cc1noc(C2CCN(C(=O)CCNc3ncccn3)CC2)n1 | -1.06
88 | CC(C)c1nc(CC(=O)N2CCCC(n3cncn3)C2)cs1 (configuration not stated) | 2.88
89 | CNC(=O)COc1ccccc1CNC1CCc2ncnn2C1 (configuration not stated) | 29.2
90 | CC(C)n1ccnc1CN1CCCN(C(=O)c2nccnc2N)CC1 | -16.3
91 | O=C(NCCn1ccnc1)N1CCCC1c1ccsc1 (configuration not stated) | -4.3
92 | O=C(c1cc(C2CC2)on1)N1CCCC(n2cncn2)C1 (configuration not stated) | 30.6
93 | O=C(Cc1cn2ccsc2n1)N1CCCC(n2cncn2)C1 (configuration not stated) | 0.86
94 | O=C(Nc1cccc2c1CCCC2)C1CCCN1c1nccs1 (configuration not stated) | 2.35
95 | O=C(c1ccc(OCC2CC2)nc1)N1CCCC(n2ccnc2)C1 (configuration not stated) | -14.6
96 | CC1COCCN1C(=O)c1cccc(OCc2cscn2)c1 (configuration not stated) | -8.23

Row | Compound | cytotoxicity at 70.5 h [%]
97 | O=C(NCC1CCOC1)Nc1ccc(OCC(F)(F)F)nc1 (configuration not stated) | -10.7
98 | Cc1ccc(Oc2ccc(NC(=O)NCC3CCOC3)cn2)cc1C (configuration not stated) | 4.23
99 | COCC(C)N(C)C(=O)c1nc(S(C)(=O)=O)n2ccccc12 (configuration not stated) | -0.102
100 | Cc1ccc(C(=O)N2CCN(CCc3cccs3)CC2)c(=O)[nH]1 | -8.54
101 | Cc1cc(C2CCCN2Cc2ccn(C)c(=O)c2)no1 (configuration not stated) | -1.78
102 | Cn1ccc(CN2CCC(NC(=O)Cc3ccccc3)CC2)cc1=O | 2.35
103 | Cc1cnn(C2CCCN(C(=O)c3cc(C4CC4)on3)C2)c1 (configuration not stated) | -4.84
104 | Cc1ccc(-c2nc(CN3CCc4c(ncn4C)C3)cs2)o1 | 36.9
105 | O=C(c1cc(C2CC2)[nH]n1)N1CCCC(n2cncn2)C1 (configuration not stated) | -0.297
106 | O=C1NCc2ccc(NC(=O)C3CCCN3c3nccs3)cc21 (configuration not stated) | -9.24
107 | CS(=O)(=O)NCC1CCCN(C(=O)COc2ccc(F)cc2)C1 (configuration not stated) | -15.8
108 | NC(=O)CN1CCC(NC(=O)Nc2nccs2)CC1 | 21.5
109 | O=C(Nc1nnc(C2CC2)s1)NC1CCN(Cc2ccccc2)C1 (configuration not stated) | -28
110 | Cc1cccc(N2CCN(C(=O)Nc3cnn(CC(N)=O)c3)CC2)c1 | -18.1
111 | Cc1noc(C2CCN(C(=O)c3ccc(NC4CC4)nc3)CC2)n1 | -10.2
112 | Cc1ccc(C(CNC(=O)NCc2cc[nH]n2)N2CCOCC2)o1 (configuration not stated) | -14.3
113 | NC(=O)Cn1cc(NC(=O)N2CCCC2)cn1 | -29.6
114 | Cn1cnc2c1CCN(Cc1cccc(OCC(N)=O)c1)C2 | -9.69
115 | Cc1cc(CN2CCCC2Cn2cncn2)no1 (configuration not stated) | 26.7
116 | COc1ccc(CNCC2CCN(CC(C)O)CC2)c2ccccc12 (configuration not stated) | 29.8
117 | CCn1ccnc1CN1CCCN(C(=O)c2cc(Cl)c[nH]2)CC1 | -12.8
